Reference: paper PMC12058896, “Potent antimicrobial activity of hydrogel loaded with the antimicrobial peptide, D-Bac8c^2,5 Leu, against monospecies and polymicrobial biofilms of Staphylococcus aureus and Pseudomonas aeruginosa” (Frontiers in Microbiology, 2025)
In brackets after ≈: the same amount, converted by molar mass. Marks after values point to notes of the source that are not given here. Non-standard residues stand in square brackets, D forms with d. Residues, ends and D or L forms follow the SMILES beside them.

Tests used:
[1] = system: S. aureus strains; format: cell-based, Staphylococcus aureus; conditions: 2 MRSA and 2 MSSA strains, summed up in text
Description: Strains used in the study were isolates of methicillin-resistant Staphylococcus aureus (MRSA); USA300 LAC, BH1CC ([O’Neill et al., 2007]), methicillin-sensitive S. aureus (MSSA); SH1000 ([Horsburgh et al., 2002]) and BH48 ([O’Neill et al., 2007]); and Pseudomonas aeruginosa PAO1 (ATCC […]). Clinical isolates were obtained from a previous collection of isolates of infected wounds. Bacteria were grown aerobically at 37°C with shaking at 200 rpm in Brain Heart Infusion (BHI, Oxoid, Ireland). Selective media, Mannitol Salt Agar (SLS, Ireland) and MacConkey agar (SLS, Ireland), for re-isolation of bacterial strains from mixed species biofilms were used. Bolton Broth (Fannin, Ireland) supplemented with 50% bovine heparin plasma (TebuBio, UK), and 5% laked horse blood (Sigma-Aldrich, Ireland) was used to mimic in vivo conditions for static antibiofilm testing. For dynamic biofilm growth Simulated Wound Fluid (SWF) prepared as described previously with slight modification, 3% v/v fetal bovine serum in maximum recovery diluent (Merck, Ireland) was used ([Barbour et al., 2016]).
Minimum inhibitory concentration (MIC) was determined aerobically using the broth microdilution assay as recommended by the Clinical and Laboratory Standards Institute (CLSI) ([CLSI, 2018]). […]

[2] = system: PAO1 + SH1000 polymicrobial biofilm; experiment: Static polymicrobial biofilm, CFU enumeration; format: cell-based, S. aureus + P. aeruginosa; conditions: 6 h, 37°C
Description: (§1) Biofilms were formed under static conditions using flat 96-well polystyrene plates as described previously with few modifications ([Nasreddine et al., 2018]). Briefly, overnight cultures in BHI were washed and diluted 1:200 in fresh Bolton Broth media supplemented with 50% bovine heparin plasma, and 5% laked horse blood. From this suspension, 100 μL was used to inoculate the microtiter plate wells prior to static incubation at 37°C for 24 h, 3 days and 5 days. The media in each well was changed daily during prolonged incubation periods (3 and 5 days). Following the initial incubation period and washing, 100 μL of D-Bac8c^2,5 Leu, was added to each test well at 37°C for 6 h at a concentration range of 64–256 μg/mL. After incubation with D-Bac8c^2,5 Leu, biofilms were washed twice with PBS and biofilm assessment was performed. For the polymicrobial biofilms, a bacterial solution ratio 1:1 of S. aureus and P. aeruginosa at 1 × 10^5 CFU/mL each was used to inoculate the wells. In each assay, inoculated medium without antimicrobials and uninoculated medium served as growth and sterility controls, respectively. Experiments were conducted in triplicate, and independent replicates were performed three times to yield n = 3.
(§2) After treatment, formed biofilms were washed twice with sterile PBS and then suspended in TrypLE solution (Gibco, Dublin, Ireland). A serial of 10-fold dilutions of the suspended biofilms were performed in 96-well flat bottom microplates. Then 10 μL of each dilution was plated in triplicate on MH agar using the drop method. For polymicrobial biofilms, dilutions were plated on Mannitol Salt Agar and MacConkey Agar. After overnight incubation at 37°C, CFU were counted and results were expressed as log10CFU/mL.

[3] = system: PAO1 + USA300 polymicrobial biofilm; experiment: Static polymicrobial biofilm, CFU enumeration; format: cell-based, S. aureus + P. aeruginosa; conditions: 24 h biofilm PAO1 + USA300, 256 μg/mL, 6 h, 37°C
Description: as §1, §2

[4] = system: HaCaT; experiment: MTT cell viability; format: cell-based, human; conditions: 24 h, 37°C, 5% CO2, average of three independent experiments
[5] = system: HUVEC; experiment: MTT cell viability; format: cell-based, human; conditions: 24 h, 37°C, 5% CO2, average of three independent experiments
[6] = system: tested strains (SH1000, BH48, USA300, BH1CC, PAO1); experiment: In vitro serial passage, induction of resistance; format: cell-based, S. aureus and P. aeruginosa; conditions: subculturing for 14 days at sub-MIC concentrations
Description: This assay was performed as outlined previously with some modifications ([Ge et al., 1999]; [Mohan et al., 2019]). Briefly, the in vitro serial passage study involved exposing bacteria diluted to 10^4 CFU/mL in cationic adjusted Muller Hinton Broth (Merck, Ireland) to D-Bac8c^2,5 Leu at one-half of the previously established bactericidal concentration. After 90 min of incubation at 37°C, 10 μL was plated in triplicate on MH agar and incubated again overnight. Post-incubation, surviving colonies were harvested, diluted in PBS and re-adjusted to 1 × 10^4 CFU/mL before repeated treatment with the sub-bactericidal concentration. This concentration was determined prior to the initiation of the study and after the 4th, 7th, 11th, and 14th passages. If the concentration after these passages was greater than the original determinate, then at passages […], the amount of peptide used during the bacterial challenge was increased. This was continued over a 14-day course. This assay was performed in independent duplicates.

## CC(C)C[C@@H](NC(=O)[C@H](N)CCCNC(=N)N)C(=O)N[C@H](Cc1c[nH]c2ccccc12)C(=O)N[C@@H](C(=O)N[C@H](CC(C)C)C(=O)N[C@H](Cc1c[nH]c2ccccc12)C(=O)N[C@H](CCCNC(=N)N)C(=O)N[C@H](CCCNC(=N)N)C(N)=O)C(C)C [D-Bac8c^2,5 Leu] (H-[dR][dL][dW][dV][dL][dW][dR][dR]-NH2; N-terminus assumed)
[1]
  MIC against S. aureus strains: 8 µg/mL (≈ 6.76 µM)
[2]; 24 h biofilm PAO1 + SH1000, 64 μg/mL, left column of pair under S. aureus + P. aeruginosa
  Log change vs. untreated control: −0.6 Log
[2]; 24 h biofilm PAO1 + SH1000, 64 μg/mL, right column of pair under S. aureus + P. aeruginosa
  Log change vs. untreated control: −0.64 Log
[2]; 24 h biofilm PAO1 + SH1000, 128 μg/mL, left column of pair
  Log change vs. untreated control: −1.65* Log
[2]; 24 h biofilm PAO1 + SH1000, 128 μg/mL, right column of pair
  Log change vs. untreated control: −1.61* Log
[2]; 24 h biofilm PAO1 + SH1000, 256 μg/mL
  Log change vs. untreated control: −3.78*** Log
[3]
  Log change vs. untreated control: −2.44*** Log
[4]
  IC50 (50% cell viability), MTT: 426.7 µg/mL (≈ 361 µM)
[5]
  IC50 (50% cell viability), MTT: 134 µg/mL (≈ 113 µM)
[6]
  development of resistance (change in MIC): not accompanied by increased resistance
